The source made the active and inactive calls. No cut-off for these calls is given here.
Columns and labels:
Rattus norvegicus [1] = experiment: Anti-inflammatory activity in vivo by carrageenan paw edema assay in rat at a dose of 30 mg/kg; format: functional
[2] = target: T1, Prostaglandin G/H synthase 1 (Rattus norvegicus, UniProt Q63921)
T1 sequence (Q63921 whole entry): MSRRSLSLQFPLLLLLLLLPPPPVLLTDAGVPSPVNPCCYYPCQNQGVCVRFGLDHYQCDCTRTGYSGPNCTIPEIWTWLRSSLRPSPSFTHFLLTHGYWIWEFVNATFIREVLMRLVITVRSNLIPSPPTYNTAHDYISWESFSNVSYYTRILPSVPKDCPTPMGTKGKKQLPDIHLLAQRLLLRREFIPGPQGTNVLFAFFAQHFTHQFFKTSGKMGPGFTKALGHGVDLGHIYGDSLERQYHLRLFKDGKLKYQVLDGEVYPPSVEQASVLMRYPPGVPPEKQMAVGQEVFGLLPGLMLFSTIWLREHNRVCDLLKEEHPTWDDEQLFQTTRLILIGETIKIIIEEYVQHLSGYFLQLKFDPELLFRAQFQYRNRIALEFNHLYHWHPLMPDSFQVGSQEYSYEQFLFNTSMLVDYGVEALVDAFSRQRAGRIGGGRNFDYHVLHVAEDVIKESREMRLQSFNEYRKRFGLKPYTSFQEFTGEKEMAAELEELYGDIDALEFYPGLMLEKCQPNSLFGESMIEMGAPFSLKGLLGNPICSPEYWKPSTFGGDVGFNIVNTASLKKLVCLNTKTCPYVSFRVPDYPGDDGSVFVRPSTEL
Description: In vitro inhibitory concentration against rat prostaglandin G/H synthase 1

Rattus norvegicus [3] = species on record: Rattus norvegicus; experiment: Dose producing ulceration in rats; format: functional
Rattus norvegicus [4] = experiment: Antiinflammatory activity in vivo by carrageenan paw edema assay in rat at a dose of 3 mg/kg; format: functional
Rattus norvegicus [5] = species on record: Rattus norvegicus; conditions: 30 mg/kg
Description: Antiinflammatory activity in vivo by carrageenan paw edema assay in rat at a dose of 30 mg/kg; NA is not active

Rattus norvegicus [6] = experiment: Antiinflammatory activity in vivo by carrageenan paw edema assay in rat; NA is inactive; format: functional, organism-based
Rattus norvegicus [7] = experiment: Antiinflammatory activity in vivo by carrageenan paw edema assay in rat at a dose of 3 mg/kg; NA is inactive; format: functional, organism-based; set-up: dose 3 mg/kg
Rattus norvegicus [8] = experiment: Antiinflammatory activity in vivo by carrageenan paw edema assay in rat at a dose of 30 mg/kg; NA is inactive; format: functional, organism-based; set-up: dose 30 mg/kg
Rattus norvegicus [9] = experiment: Antiinflammatory activity in vivo by carrageenan paw edema assay in rat at a dose of 30 mg/kg: NA is inactive; format: functional, organism-based; set-up: dose 30 mg/kg
Rattus norvegicus [10] = experiment: Antiinflammatory activity in vivo by carrageenan paw edema assay in rat at a dose of 10 mg/kg; conditions: read-out: Inhibition

| Compound | inhibition in vivo at 30 mg/kg (Rattus norvegicus [1]) | IC50 [2] | inhibition in vivo at 3 mg/kg (Rattus norvegicus [4]) | also measured |
| --- | --- | --- | --- | --- |
| CSc1ccc2c(Cc3ccc(Cl)cc3)ccc(C(C)C(=O)O)c2c1 (stereo unspecified) | 16% | 19.9 µM |  |  |
| COc1ccc2c(Cc3ccc(Cl)cc3)ccc(CC(=O)O)c2c1 | 52% | > 100 µM |  |  |
| COc1ccc2c(Cc3ccc(Cl)cc3)ccc(C(C)C(=O)O)c2c1 (stereo unspecified) | 50% | 4.1 µM |  | ED50 (Rattus norvegicus [3]): 40 mg/kg |
| COc1ccc2c(Cc3ccc(C)cc3)ccc(C(C)C(=O)O)c2c1 (stereo unspecified) | 49% | 2.8 µM | 30% |  |
| CCOc1ccc(Cc2ccc(C(C)C(=O)O)c3cc(OC)ccc23)cc1 (stereo unspecified) | 52% | > 100 µM | 27% |  |
| COc1ccc2c(Cc3ccc(Cl)cc3)c(CC(=O)O)ccc2c1 |  | > 100 µM |  | inhibition (Rattus norvegicus [5]): inactive |
| CCc1ccc2c(Cc3ccc(Cl)cc3)ccc(C(C)C(=O)O)c2c1 (stereo unspecified) |  | 61 µM |  | inhibition (Rattus norvegicus [6]): inactive |
| COc1ccc2c(Cc3ccc(C(C)(C)C)cc3)ccc(C(C)C(=O)O)c2c1 (stereo unspecified) | 32% | 40.8 µM |  | inhibition (Rattus norvegicus [7]): inactive |
| COc1ccc2c(C(C)C(=O)O)ccc(Cc3ccc(F)cc3)c2c1 (stereo unspecified) |  | > 100 µM |  | inhibition (Rattus norvegicus [8]): inactive |
| CCC(C(=O)O)c1ccc(Cc2ccc(F)cc2)c2ccc(OC)cc12 (stereo unspecified) |  | 7.3 µM |  | inhibition (Rattus norvegicus [9]): inactive |
| COc1ccc2c(Cc3ccc(F)cc3)ccc(C(C)C(=O)O)c2c1 (stereo unspecified) | 53% | 1.7 µM |  |  |
| COc1ccc2c(Cc3ccc(Cl)cc3)cccc2c1 |  | > 100 µM |  | inhibition (Rattus norvegicus [8]): inactive |
| CC(C(=O)O)c1ccc(Cc2ccc(F)cc2)c2ccccc12 (stereo unspecified) | 16% | 2.4 µM |  |  |
| CC(C(=O)O)c1ccc(Cc2ccc(Cl)cc2)c2ccc(S(C)(=O)=O)cc12 (stereo unspecified) |  | > 100 µM |  | inhibition (Rattus norvegicus [1]): inactive |
| COc1ccc2c(Cc3ccccc3)ccc(C(C)C(=O)O)c2c1 (stereo unspecified) | 58% | 1.5 µM | 30% |  |
| CC(C(=O)O)c1ccc(Cc2ccc(Cl)cc2)c2ccc(Cl)cc12 (stereo unspecified) |  | > 100 µM |  | inhibition (Rattus norvegicus [5]): inactive |
| CCc1ccc(Cc2ccc(C(C)C(=O)O)c3cc(OC)ccc23)cc1 (stereo unspecified) | 32% | > 100 µM |  |  |
| CS(=O)(=O)c1ccc(C2=C(c3ccccc3)C(=O)OC2)cc1 [ROFECOXIB] |  |  | 41% |  |
| Cc1ccc(-c2cc(C(F)(F)F)nn2-c2ccc(S(N)(=O)=O)cc2)cc1 [CELECOXIB] | 40% |  | 41% |  |
| COc1ccc2c(Cc3cccc(Cl)c3)ccc(C(C)C(=O)O)c2c1 (stereo unspecified) | 0% |  | 0% |  |
| COc1ccc2c(c1)c(CC(=O)O)c(C)n2C(=O)c1ccc(Cl)cc1 [INDOMETHACIN] |  |  |  | inhibition in vivo at 10 mg/kg (Rattus norvegicus [10]): 100% |
| COc1ccc2c(Cc3ccc(C(C)=O)cc3)ccc(C(C)C(=O)O)c2c1 (stereo unspecified) |  | 218 µM |  | inhibition (Rattus norvegicus [8]): inactive; inhibition (Rattus norvegicus [7]): inactive |
| COc1ccc2c(Cc3ccc(Cl)cc3)cc(CC(=O)O)cc2c1 |  | > 100 µM |  | inhibition (Rattus norvegicus [8]): inactive |
| COc1ccc(Cc2ccc(C(C)C(=O)O)c3cc(OC)ccc23)cc1 (stereo unspecified) | 45% | 8.8 µM | 22% |  |
| COc1ccc2c(Cc3ccccc3Cl)ccc(C(C)C(=O)O)c2c1 (stereo unspecified) | 13% | 2.3 µM | 5% |  |

Reference: ChEMBL document CHEMBL1133804, “Naphthalene derivatives: A new series of selective cyclooxygenase-2 inhibitors” (Bioorg Med Chem Lett, 2001)
